From patent US11896589B2, “Diazinyl amino acridines and medical uses thereof” (MyCural Therapeutics AB, priority 2018, dated 2024)

How the values were obtained:
MAX:MAX (MAXbHLHZip) = molecular target: T1, MAX:MAX (MAXbHLHZip) (Homo sapiens, UniProt P61244); experiment: Assay 1A MST, labelled MAX pre-mixed with MAX instead of MYC; assay type: binding; settings: 1 μM MAX instead of MYC
T1 construct: Recombinant MYC bHLHZip and MAX bHLHZip proteins were titrated
Experimental: FIG. 1: A) Microscale thermophoresis (MST) of fluorescently labeled MAX in a MYC:MAX heterodimer formation assay based on recombinant proteins. MST of labeled MAXbHLHZip after titration of Example 1 pre-incubated with 1 μM MYCbHLHZip, or with 1 μM MAXbHLHZip. Fluorescence intensity of labeled MAXbHLHZip relative DMSO was plotted against Example 1 concentration. B) Surface plasmon resonance (SPR) of MYC:MAX heterodimer formation assay. MAXbHLHZip was immobilized by an amino coupling procedure to a CM5 sensor chip. MYCbHLHZip pre-incubated with or without compound (as indicated) was injected over MAX for 180 seconds, allowed to dissociate for 240 seconds and regenerated. […] C) MYC binding response units (RU) plotted against Example 1 concentration from which an IC50 of Example 1 inhibition of MYC:MAX heterodimer formation is determined, summary of four experiments.
MST measures the movement of fluorescent labelled molecules in a microscopic temperature gradient. Changes in charge, size or of the hydration shell of the fluorescent molecule affects its migration in the temperature gradient, which can be detected by the fluorescence of the molecule (See Seidel et al., Microscale thermophoresis quantifies biomolecular interactions under previously challenging conditions, METHODS (2013)). […] Capillaries were scanned to measure initial fluorescence of compound. […]

MAX bHLHZip = molecular target: T2, MAX bHLHZip (Homo sapiens, UniProt P61244); experiment: Assay 2A MST assay with MAX; assay type: binding; settings: compound fixed at 3 μM, MAX titrated, highest concentration tested 15 μM
T2 construct: Recombinant MYC bHLHZip and MAX bHLHZip proteins were titrated
T2 sequence (P61244 22-102): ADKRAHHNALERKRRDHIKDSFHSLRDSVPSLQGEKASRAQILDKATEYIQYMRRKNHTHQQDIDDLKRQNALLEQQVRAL
Experimental: FIG. 2: A) MST assay of Example 1 effect on MYC and MAX, respectively. Recombinant MYC bHLHZip and MAX bHLHZip proteins were titrated, respectively, in a fixed concentration (3 μM) of Example 1. Changes in fluorescence were measured and normalized to control (buffer). Data are shown as mean±standard deviation of 6-8 biological repeats. B) MST assay of MYC (reverse MST). A fixed concentration of 200 nM labeled MYC was mixed with different concentrations of Example 1 as indicated. Data are shown as mean±standard deviation of 5 biological repeats. C) MST assay of Example 2 effect on MYC. D) MST assay of MYC with a control compound (non-binder).
The MYC MST assay was performed as described above (Biological example 1—Assay 1A), except that the fluorescent molecule was either protein or Example 1. The example compound was kept at a fix concentration of 3 μM in PBS supplemented with 0.05% Tween-20, while MYCbHLHZip or MAX was titrated. The migration of example compound changed at MYC protein concentrations above 1 μM, but was unaffected with MAX up to highest concentration tested (15 μM) (FIG. 2A). In a reverse experiment, Example 1 was titrated in a fixed protein concentration in PBS supplemented with 0.05% Tween-20 and 1% DMSO as described above after labelling primary amines of the protein using the Protein labelling kit GREEN-NHS (NanoTemper) according to manufacturer's protocol. […]

[1] = molecular target: T3, endogenous MYC:MAX interaction in MDA-MB231 cells (Homo sapiens, UniProt P01106); experiment: Assay 3A isPLA assay, MYC:MAX; assay type: cell-based
T3 construct: endogenous in cells; host or cells: MDA-MB231
T3 sequence (P01106 whole entry): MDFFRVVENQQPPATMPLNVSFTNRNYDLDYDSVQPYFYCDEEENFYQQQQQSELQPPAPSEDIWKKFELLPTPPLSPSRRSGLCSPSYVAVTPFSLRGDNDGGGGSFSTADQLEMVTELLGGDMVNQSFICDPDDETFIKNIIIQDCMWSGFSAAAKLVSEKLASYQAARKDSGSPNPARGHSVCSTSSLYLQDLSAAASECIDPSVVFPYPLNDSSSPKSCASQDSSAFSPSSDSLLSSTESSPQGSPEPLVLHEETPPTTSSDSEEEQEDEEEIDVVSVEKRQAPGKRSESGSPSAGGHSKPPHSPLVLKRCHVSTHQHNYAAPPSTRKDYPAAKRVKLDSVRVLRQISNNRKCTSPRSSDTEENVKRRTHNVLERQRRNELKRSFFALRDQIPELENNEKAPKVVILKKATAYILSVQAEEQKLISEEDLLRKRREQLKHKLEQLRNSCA
Text: FIG. 4: A) Endogenous MYC:MAX (upper panel) and FRA1:JUN (lower panel) interactions as visualized as fluorescent red dots by isPLA. Nuclei were counterstained with DAPI (blue). […] As negative control, primary antibody pairs but only one oligo-conjugated secondary antibody was used. B) Quantification of MYC:MAX and C) FRA1:JUN isPLA, representing an average number of nuclear dots per cell from three microscopic fields normalized to corresponding values for DMSO-treated cells. […] 1st-4th lanes from top; coimmunoprecipitated MAX, immunoprecipitated MYC, total levels of MAX and ACTIN, respectively, as determined by western blot analysis. E) MYC:MAX GLuc assay in cells. […] 24 hours later cells were treated with […] of Example 1, Example 2 and control compound for 16 hours and thereafter analyzed in a dual luciferase assay. The ratio of Gaussia/Firefly luciferase luminescence were calculated and normalized to DMSO-treated cells.
Assay 3A: The isPLA Assay
Identification of endogenous protein-protein interactions in fixed cells and has been described (Soderberg, O. et al., Nat Methods, 3, 995-1000 (2006)). […] Endogenous MYC:MAX or FRA-1:JUN protein interactions were visualized by fluorescence microscopy as fluorescent dots mainly localized in the cell nucleus. […]

T1 sequence (P61244 22-102): as the sequence (P61244 22-102) above

effect on labelled MAX thermophoresis when pre-mixed with MAX (MAX:MAX (MAXbHLHZip)): minor effects | Effect on thermophoresis (MAX protein concentration) (MAX bHLHZip): > 15 µM | isPLA signals, % of DMSO control ([1]; 10 μM, 24 hours): 7% | inhibition at 10 µM ([1]; MDA-MB-231): 95%
SMILES: CCOc1ccc2nc3cc(/N=N/c4ccc(N)nc4N)ccc3c(N)c2c1 [Example 1, 3-((9-amino-7-ethoxyacridin-3-yl)diazenyl)pyridine-2,6-diamine sulphate hydrate]
